In article PMC10023787, “Trio-pharmacophore DNA-encoded chemical library for simultaneous selection of fragments and linkers” (Nature Communications, 2023):
Like-named read-outs stand apart in the source and are kept apart here.

Tests used:
MMP-2 = target: T1, MMP-2 (Homo sapiens, UniProt P08253); test: MMP-2 inhibition assay (fluorogenic peptide substrate); assay type: biochemical; conditions: for IC50: n.d: not detected
T1 construct: purchased Sino Biological 10082-HNAH
T1 sequence (P08253 110-660): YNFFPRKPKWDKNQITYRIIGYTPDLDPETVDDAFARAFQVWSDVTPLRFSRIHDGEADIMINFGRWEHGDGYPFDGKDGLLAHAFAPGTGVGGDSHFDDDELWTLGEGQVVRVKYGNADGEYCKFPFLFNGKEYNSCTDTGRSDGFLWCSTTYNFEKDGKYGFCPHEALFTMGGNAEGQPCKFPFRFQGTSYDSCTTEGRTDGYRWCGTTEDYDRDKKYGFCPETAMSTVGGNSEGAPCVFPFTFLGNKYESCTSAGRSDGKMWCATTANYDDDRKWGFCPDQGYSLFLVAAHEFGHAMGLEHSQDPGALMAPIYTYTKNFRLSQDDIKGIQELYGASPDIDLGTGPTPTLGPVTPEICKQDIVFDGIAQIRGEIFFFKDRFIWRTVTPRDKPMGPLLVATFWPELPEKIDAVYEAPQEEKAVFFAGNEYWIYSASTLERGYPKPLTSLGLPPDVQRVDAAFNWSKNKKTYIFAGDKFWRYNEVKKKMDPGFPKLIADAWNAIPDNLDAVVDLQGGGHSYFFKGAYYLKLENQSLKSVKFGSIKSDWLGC
Description: (§1) The inhibition by the small molecule compounds against MMP-2/MMP-9 was measured using an assay probing the enzyme proteolytic activity on the substrate DNP-Pro-Leu-Gly-Met-Trp-Ser-Arg (Enzo Life Sciences, USA). All assays were performed in the assay buffer containing 50 mM Tris, 100 mM NaCl. 5 mM CaCl2, and 0.1% Brij 35, pH 7.5. Human proMMP-2 and proMMP-9 were purchased from Sino biological (Germany). The proMMPs were activated by 1 mM APMA in the assay buffer at 37 °C for 2 h. After activation, MMP-2 was diluted to 6.5 nM of final assay concentration, and MMP-9 was diluted by the buffer to reach 10 nM of final assay concentration. In each well, 49 μl of enzyme solution was incubated with 1 μl of compounds of series of concentration (nM-mM in DMSO) at RT for 30 min. 2 μl of the FRET substrate was added right before the measurement at a final concentration of 25 μM. The rate of hydrolysis was monitored by quantifying the emission at 360 nm (ex: 280 nm). The emission was measured with intervals of the 30 s for 30 min with Synergy H1 Plate Reader (Agilent, USA). The measurements were done in triplicate. […] Then, curves were plotted as a function of the concentration of the inhibitor against the relative enzyme activity. Vmax was derived from the detected […] signal for each concentration and logistic fitting was performed to obtain IC50 values using Origin 2019b (OriginLab).

MMP-9 = target: T2, MMP-9 (Homo sapiens, UniProt P14780); test: MMP-9 inhibition assay (fluorogenic peptide substrate); assay type: biochemical; design: remaining enzyme activity (% of control): scale not given here
T2 construct: purchased Sino Biological 10327-HNAH
Description: as §1

[1] = mean ± SE, Fig. 5d unit inferred, µM, read-out: IC50
[2] = mean ± SE; n.d: not detected; Fig. 5e prints no unit, µM; read-out: IC50

T2 sequence (P14780 107-707 limits assumed): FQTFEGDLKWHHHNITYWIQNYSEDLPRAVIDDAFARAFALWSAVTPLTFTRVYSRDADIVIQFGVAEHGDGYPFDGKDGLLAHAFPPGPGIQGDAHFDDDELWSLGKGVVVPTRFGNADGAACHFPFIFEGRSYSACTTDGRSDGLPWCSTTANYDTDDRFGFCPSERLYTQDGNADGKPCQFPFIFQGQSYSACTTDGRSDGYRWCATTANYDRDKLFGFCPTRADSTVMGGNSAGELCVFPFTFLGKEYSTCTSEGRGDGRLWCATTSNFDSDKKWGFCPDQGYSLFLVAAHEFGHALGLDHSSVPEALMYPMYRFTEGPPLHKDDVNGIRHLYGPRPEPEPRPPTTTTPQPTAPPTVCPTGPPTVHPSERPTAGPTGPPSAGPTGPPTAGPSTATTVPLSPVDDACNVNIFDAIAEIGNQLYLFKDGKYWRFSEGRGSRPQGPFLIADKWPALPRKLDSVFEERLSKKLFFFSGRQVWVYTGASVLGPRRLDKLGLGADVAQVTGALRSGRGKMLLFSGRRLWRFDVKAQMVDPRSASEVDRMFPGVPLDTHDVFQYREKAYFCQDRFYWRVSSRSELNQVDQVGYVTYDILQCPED

`O=C(CSCCNC(=O)c1cncc(O)c1)NCC12CC3CC(CC(C3)C1)C2` [66+828 Linker 24] was tested, and the “remaining activity (%)” value (MMP-2; MMP-2, concentration 0.00858 µM) was 98.41, the “remaining activity (%)” value (MMP-2; MMP-2, concentration 0.0429 µM) was 98.85 and the “remaining activity (%)” value (MMP-2; MMP-2, concentration 0.21 µM) was 87.72. The “remaining activity (%)” value (MMP-2; MMP-2, concentration 1.07 µM) was 96.38, the “remaining activity (%)” value (MMP-2; MMP-2, concentration 5.36 µM) was 85.18 and the “remaining activity (%)” value (MMP-2; MMP-2, concentration 26.80 µM) was 89.19. The “remaining activity (%)” value (MMP-2; MMP-2, concentration 670.10 µM) was 1.11, the “remaining activity (%)” value (MMP-2; MMP-2, concentration […]) was 61.21 and the IC50 (MMP-2; [1]) was 184 ± 17.3 µM. The “remaining enzyme activity (% of control)” value (MMP-9; MMP-9; concentration 0.0429 µM) was 93.34, the “remaining enzyme activity (% of control)” value (MMP-9; MMP-9; concentration 0.21 µM) was 95.33 and the “remaining enzyme activity (% of control)” value (MMP-9; MMP-9; concentration 1.07 µM) was 103.77. The “remaining enzyme activity (% of control)” value (MMP-9; MMP-9; concentration 5.36 µM) was 97.03, the “remaining enzyme activity (% of control)” value (MMP-9; MMP-9; concentration 26.80 µM) was 82.56 and the “remaining enzyme activity (% of control)” value (MMP-9; MMP-9; concentration 670.10 µM) was 15.33. For the same compound, the “remaining enzyme activity (% of control)” value (MMP-9; MMP-9; concentration […]) was 65.61 and the IC50 (MMP-9; [2]) was 216 ± 47.3 µM.

With `Cn1c(O)nc2cc(C(=O)NCCCCC=CC(=O)CC(=O)NCCNC(=O)Cn3cnc4c(oc5ccccc54)c3=O)cnc21` [182+826 Linker 12] the “remaining activity (%)” value (MMP-2; MMP-2, concentration 0.13 µM) was 97.62, the “remaining activity (%)” value (MMP-2; MMP-2, concentration 0.50 µM) was 96.92 and the “remaining activity (%)” value (MMP-2; MMP-2, concentration 2.01 µM) was 91.66. The “remaining activity (%)” value (MMP-2; MMP-2, concentration 8.03 µM) was 85.01, the “remaining activity (%)” value (MMP-2; MMP-2, concentration 128.50 µM) was 28.27 and the “remaining activity (%)” value (MMP-2; MMP-2, concentration 514.00 µM) was 12.65. The IC50 (MMP-2; [1]) was 62.3 ± 14 µM, the “remaining enzyme activity (% of control)” value (MMP-9; MMP-9, concentration 0.12 µM) was 93.35 and the “remaining enzyme activity (% of control)” value (MMP-9; MMP-9, concentration 0.49 µM) was 105.08. The “remaining enzyme activity (% of control)” value (MMP-9; MMP-9, concentration 1.95 µM) was 88.98, the “remaining enzyme activity (% of control)” value (MMP-9; MMP-9, concentration 7.81 µM) was 94.00 and the “remaining enzyme activity (% of control)” value (MMP-9; MMP-9, concentration 31.25 µM) was 85.67. The “remaining enzyme activity (% of control)” value (MMP-9; MMP-9, concentration 125.00 µM) was 51.95, the “remaining enzyme activity (% of control)” value (MMP-9; MMP-9, concentration 500.00 µM) was 12.28 and the IC50 (MMP-9; [2]) was 131 ± 24.2 µM.

An IC50 (MMP-2; Figure 5d, fragment combination joined by linker, read-out: MMP2 IC50) of 59.9 µM and an IC50 (MMP-9; Figure 5d; fragment combination joined by linker; n.d: not detected; read-out: MMP9 IC50) of 80.5 µM were found for `Cc1cc(=O)[nH]c(-n2nc(C)c(CCC(=O)NCCNC(=O)CSCCNC(=O)c3cncc(O)c3)c2C)n1` [693_828 24] in this work.

With `O=C(CNC(=O)NC12CC3CC(CC(C3)C1)C2)NCCCCCCCCNC(=O)c1cncc(O)c1` [66+828 Linker 4] the “remaining activity (%)” value (MMP-2; MMP-2, concentration 0.0156 µM) was 106.93, the “remaining activity (%)” value (MMP-2; MMP-2, concentration 0.08 µM) was 108.75 and the “remaining activity (%)” value (MMP-2; MMP-2, concentration 0.39 µM) was 91.04. For the same compound, the “remaining activity (%)” value (MMP-2; MMP-2, concentration 1.95 µM) was 95.05, the “remaining activity (%)” value (MMP-2; MMP-2, concentration 9.75 µM) was 96.24 and the “remaining activity (%)” value (MMP-2; MMP-2, concentration 48.76 µM) was 69.88. For the same compound, the “remaining activity (%)” value (MMP-2; MMP-2, concentration 243.80 µM) was 65.10, the “remaining activity (%)” value (MMP-2; MMP-2, concentration 1219.00 µM) was 54.12 and the “remaining enzyme activity (% of control)” value (MMP-9; MMP-9; concentration 0.08 µM) was 92.81. For the same compound, the “remaining enzyme activity (% of control)” value (MMP-9; MMP-9; concentration 0.39 µM) was 100.82, the “remaining enzyme activity (% of control)” value (MMP-9; MMP-9; concentration 1.95 µM) was 101.95 and the “remaining enzyme activity (% of control)” value (MMP-9; MMP-9; concentration 9.75 µM) was 96.31. The “remaining enzyme activity (% of control)” value (MMP-9; MMP-9; concentration 48.76 µM) was 80.00, the “remaining enzyme activity (% of control)” value (MMP-9; MMP-9; concentration 243.80 µM) was 52.30 and the “remaining enzyme activity (% of control)” value (MMP-9; MMP-9; concentration 1219.00 µM) was 13.62.
